Entries after “also recorded” stand apart in the source; their conditions may differ.
How the values were obtained:
PDE5/CyaB1-chimera = assay: adenylate cyclase activity of PDE5/CyaB1-chimera (conversion of [α-32P]-ATP to cAMP); assay type: biochemical, human; settings: in the presence of cGMP; FIG. 6
Protocol: The adenylate cyclase activity of the PDE5/CyaB1-chimera is measured with and without the test substance. […] The incubation time should be between 1 and 120 min, the incubation temperature between 20 and 45° C., the Mg^2+-cofactor concentration between 1 and 20 mM (corresponding amounts of Mn^2+ may also be used as a cofactor) and the ATP concentration between 0.5 μM and 5 mM. An increase in the conversion with the substance compared to without the substance indicates a GAF-agonistic effect. If conversion is inhibited by adding the substance, this indicates a GAF-antagonistic effect of the substance. A GAF antagonism can also be measured via blockage of activation of PDE5/CyaB1-chimera by the native GAF ligand cGMP. In addition, the conversion at rising or fixed cGMP concentration is measured with and without the substance. If the conversion rates with the substance are below those without the substance, this indicates GAF antagonism of the substance. […]
The protein samples and the cocktail are measured in 1.5 mL reaction containers on ice, the reaction with ATP is started, and incubation is carried for 10 minutes at 37° C.
Each test mixture is carried in duplicate. […] With a test mixture without substance and cGMP, the basal enzyme activity is determined. […]
The inhibition or activation of the enzyme by the substance is calculated as % basal value according to the following formula: […]

PDE5 = PDE5 (Homo sapiens, UniProt O76074); settings: cited from earlier work

CCCc1nn(C)c2c(=O)[nH]c(-c3cc(S(=O)(=O)N4CCN(C)CC4)ccc3OCC)nc12 [Sildenafil]
PDE5-antagonistic effect via binding to the GAF domain of PDE5 (PDE5/CyaB1-chimera): None of the measured PDE5 inhibitors shows a PDE5-antagonistic effect; also recorded: None of the measured PDE5 inhibitors showed a PDE5-antagonistic action

Nc1nc2c(ncn2[C@@H]2O[C@@H]3COP(=O)(O)O[C@H]3[C@H]2O)c(=O)[nH]1 [cGMP]
increase of the activity of PDE5 via cGMP binding to the GAF tandem (PDE5): tenfold
